Results published in the NIST ThermoML archive (doi:10.1021/acs.jced.8b00153).
Where “and” joins values, the source holds several entries; their conditions need not be identical. Equal entries are not always repeated.

Details: for surface tension liquid-gas: Drop volume; for viscosity / speed of sound / mass density / vapor or sublimation pressure: Liquid; for viscosity: Capillary tube (Ostwald / Ubbelohde) method; for speed of sound: Frequency=3 MHz, Single path-length method; for mass density: Vibrating tube method; for vapor or sublimation pressure: Ebulliometric method (Recirculating still)

CCc1ccco1 [2-ethylfuran]
Details	surface tension liquid-gas [mN/m]	vapor or sublimation pressure [kPa]
278.15 K	27.22	–
280.65 K	26.91	–
283.15 K	26.59	–
285.65 K	26.31	–
288.15 K	26.01	–
289.96 K	–	4.96
290.65 K	25.62	–
292.18 K	–	5.57
293.15 K	25.32	–
293.77 K	–	6.05
295.65 K	25.09	–
295.94 K	–	6.77
297.39 K	–	7.29
298.15 K	24.78	–
299.52 K	–	8.105
300.65 K	24.43	–
301.86 K	–	9.08
303.15 K	24.12	–
304.58 K	–	10.35
305.65 K	23.81	–
306.32 K	–	11.27
308.15 K	23.51	–
308.82 K	–	12.64
310.65 K	23.22	–
312.73 K	–	15.06
313.15 K	22.91	–

Details	mass density	speed of sound [m/s]	viscosity [mPa·s]
278.15 K, 100 kPa	920.97 kg/m3	1281	0.6327
280.65 K, 100 kPa	918.26 kg/m3	1270.8	0.6126
283.15 K, 100 kPa	915.55 kg/m3 and 915.5 kg/m3	1259.4	0.5934
283.15 K, 2000 kPa	917.27 kg/m3	–	–
283.15 K, 5000 kPa	919.69 kg/m3	–	–
283.15 K, 7000 kPa	921.41 kg/m3	–	–
283.15 K, 10000 kPa	923.87 kg/m3	–	–
283.15 K, 15000 kPa	927.84 kg/m3	–	–
283.15 K, 20000 kPa	931.59 kg/m3	–	–
283.15 K, 25000 kPa	935.19 kg/m3	–	–
283.15 K, 30000 kPa	938.66 kg/m3	–	–
283.15 K, 35000 kPa	942.04 kg/m3	–	–
283.15 K, 40000 kPa	945.33 kg/m3	–	–
283.15 K, 45000 kPa	948.5 kg/m3	–	–
283.15 K, 50000 kPa	951.53 kg/m3	–	–
283.15 K, 55000 kPa	954.61 kg/m3	–	–
283.15 K, 60000 kPa	957.6 kg/m3	–	–
283.15 K, 65000 kPa	960.38 kg/m3	–	–
285.65 K, 100 kPa	912.83 kg/m3	1248.7	0.5733
288.15 K, 100 kPa	910.1 kg/m3 and 910.08 kg/m3	1238.5	0.556
288.15 K, 2000 kPa	911.89 kg/m3	–	–
288.15 K, 5000 kPa	914.37 kg/m3	–	–
288.15 K, 7000 kPa	916.19 kg/m3	–	–
288.15 K, 10000 kPa	918.68 kg/m3	–	–
288.15 K, 15000 kPa	922.7 kg/m3	–	–
288.15 K, 20000 kPa	926.63 kg/m3	–	–
288.15 K, 25000 kPa	930.32 kg/m3	–	–
288.15 K, 30000 kPa	933.89 kg/m3	–	–
288.15 K, 35000 kPa	937.37 kg/m3	–	–
288.15 K, 40000 kPa	940.66 kg/m3	–	–
288.15 K, 45000 kPa	943.92 kg/m3	–	–
288.15 K, 50000 kPa	947.13 kg/m3	–	–
288.15 K, 55000 kPa	950.18 kg/m3	–	–
288.15 K, 60000 kPa	953.28 kg/m3	–	–
288.15 K, 65000 kPa	956.1 kg/m3	–	–
290.65 K, 100 kPa	907.37 kg/m3	1227.6	0.5394
293.15 K, 100 kPa	904.64 kg/m3 and 904.65 kg/m3	1216.7	0.5214
293.15 K, 2000 kPa	906.44 kg/m3	–	–
293.15 K, 5000 kPa	909.05 kg/m3	–	–
293.15 K, 7000 kPa	910.93 kg/m3	–	–
293.15 K, 10000 kPa	913.5 kg/m3	–	–
293.15 K, 15000 kPa	917.66 kg/m3	–	–
293.15 K, 20000 kPa	921.69 kg/m3	–	–
293.15 K, 25000 kPa	925.54 kg/m3	–	–
293.15 K, 30000 kPa	929.07 kg/m3	–	–
293.15 K, 35000 kPa	932.7 kg/m3	–	–
293.15 K, 40000 kPa	936.06 kg/m3	–	–
293.15 K, 45000 kPa	939.48 kg/m3	–	–
293.15 K, 50000 kPa	942.66 kg/m3	–	–
293.15 K, 55000 kPa	945.78 kg/m3	–	–
293.15 K, 60000 kPa	948.91 kg/m3	–	–
293.15 K, 65000 kPa	951.86 kg/m3	–	–
295.65 K, 100 kPa	901.9 kg/m3	1205.2	0.5061
298.15 K, 100 kPa	899.15 kg/m3 and 899.11 kg/m3	1194.9	0.4917
298.15 K, 2000 kPa	901.01 kg/m3	–	–
298.15 K, 5000 kPa	903.73 kg/m3	–	–
298.15 K, 7000 kPa	905.65 kg/m3	–	–
298.15 K, 10000 kPa	908.34 kg/m3	–	–
298.15 K, 15000 kPa	912.57 kg/m3	–	–
298.15 K, 20000 kPa	916.67 kg/m3	–	–
298.15 K, 25000 kPa	920.61 kg/m3	–	–
298.15 K, 30000 kPa	924.3 kg/m3	–	–
298.15 K, 35000 kPa	928.03 kg/m3	–	–
298.15 K, 40000 kPa	931.52 kg/m3	–	–
298.15 K, 45000 kPa	934.92 kg/m3	–	–
298.15 K, 50000 kPa	938.29 kg/m3	–	–
298.15 K, 55000 kPa	941.41 kg/m3	–	–
298.15 K, 60000 kPa	944.69 kg/m3	–	–
298.15 K, 65000 kPa	947.7 kg/m3	–	–
300.65 K, 100 kPa	896.4 kg/m3	1184.1	0.4774
303.15 K, 100 kPa	893.64 kg/m3 and 893.58 kg/m3	1172.5	0.4637
303.15 K, 2000 kPa	895.61 kg/m3	–	–
303.15 K, 5000 kPa	898.41 kg/m3	–	–
303.15 K, 7000 kPa	900.35 kg/m3	–	–
303.15 K, 10000 kPa	903.06 kg/m3	–	–
303.15 K, 15000 kPa	907.56 kg/m3	–	–
303.15 K, 20000 kPa	911.72 kg/m3	–	–
303.15 K, 25000 kPa	915.8 kg/m3	–	–
303.15 K, 30000 kPa	919.58 kg/m3	–	–
303.15 K, 35000 kPa	923.37 kg/m3	–	–
303.15 K, 40000 kPa	927 kg/m3	–	–
303.15 K, 45000 kPa	930.47 kg/m3	–	–
303.15 K, 50000 kPa	933.84 kg/m3	–	–
303.15 K, 55000 kPa	937.1 kg/m3	–	–
303.15 K, 60000 kPa	940.35 kg/m3	–	–
303.15 K, 65000 kPa	943.48 kg/m3	–	–
305.65 K, 100 kPa	890.87 kg/m3	1161.8	0.45
308.15 K, 100 kPa	888.1 kg/m3 and 888.06 kg/m3	1151.5	0.4372
308.15 K, 2000 kPa	890.15 kg/m3	–	–
308.15 K, 5000 kPa	893.04 kg/m3	–	–
308.15 K, 7000 kPa	895.02 kg/m3	–	–
308.15 K, 10000 kPa	897.93 kg/m3	–	–
308.15 K, 15000 kPa	902.45 kg/m3	–	–
308.15 K, 20000 kPa	906.8 kg/m3	–	–
308.15 K, 25000 kPa	910.98 kg/m3	–	–
308.15 K, 30000 kPa	914.84 kg/m3	–	–
308.15 K, 35000 kPa	918.68 kg/m3	–	–
308.15 K, 40000 kPa	922.47 kg/m3	–	–
308.15 K, 45000 kPa	925.95 kg/m3	–	–
308.15 K, 50000 kPa	929.45 kg/m3	–	–
308.15 K, 55000 kPa	932.76 kg/m3	–	–
308.15 K, 60000 kPa	936.18 kg/m3	–	–
308.15 K, 65000 kPa	939.24 kg/m3	–	–
310.65 K, 100 kPa	885.31 kg/m3	1140.6	0.4258
313.15 K, 100 kPa	–	–	0.4149
